Results reported in patent publication US6054437A, “Method for inducing death of neoplastic cells using piperazine derivatives” (Hitachi Chemical Research Center, Inc., priority 1997, dated 2000).
“Also recorded” adds a separate entry of the source. Counter-ions that a name gives are not always drawn.

Assays:
[1] = test system: human breast cancer cells; test: Subrenal capsule (SRC) tumor implant assay, breast cancer; assay type: in vivo, human tumor in BDF/1 mice
Experimental: FIG. 18 is a graph showing the relationship between the change in size of tumor and the dosage of NCO-700 in a sub-renal capsule assay of human breast cancer in BDF/1 mice.
A tumor implant model, where human tumors were implanted into the renal capsule of mice was performed. The tumors successfully escaped the immune system of the mouse and grew over a six-day period. The advantage of this assay is that the effect of chemotherapeutic agents can be tested in vivo. This model was developed at the University of California, Irvine by Stratton et al. (Gynecologic Oncology 17:185-188, 1984). Human tumors were implanted on day one and were exposed to drug on days two-six. The size of the implant was determined at time zero and at the end of five days of drug treatment, and the difference in size of the implanted tumor at day six, when compared to control animals not exposed to drug, is referred to herein as the delta mean.
The effect of NCO-700 on a breast cancer line was tested in the SRC assay. Three groups of animals (n=18 total) were tested with three concentrations of NCO-700 including, 10 mg/kg, 25 mg/kg and 50 mg/kg. […] These studies confirm the high potential of NCO-700 and related compounds as new anti-neoplastic agents.

[2] = test system: human tumor cells; test: Human tumor biopsy assay, tumors in general; assay type: cell-based; conditions: 20 μM NCO-700 plus vinblastine or adriamycin
Experimental: (§1) 4. Human Tumor Biopsy Assays
(§2) where the effect of NCO-700 to enhance killing, by either vinblastine or adriamycin, of cancer cells cultured directly from patient's tumors (Von Hoff et al., Cancer Res. 43:1926-1931, 1983).
(§3) For the tumor biopsy assay, primary cell cultures were propagated directly from tumor specimens removed from patients. The cells were grown in suspension culture, treated with adriamycin or vinblastine plus NCO-700, and plated onto soft agar and incubated for two weeks before cell survival was determined.
(§4) In a final series of experiments, the effect of NCO-700 on survival of cells cultured directly from biopsied patient tumors was performed. This technique, referred to as a human tumor cloning system, was developed by Von Hoff and associates (Von Hoff et al., Cancer Res. 43:1926-1931, 1983) and was used clinically to predict the course of chemotherapy for these patients. In this method, tumor biopsies were separated into cell suspensions and treated for 1 hour with either 0.4 mg/ml vinblastine (VLB) or 0.5 mg/ml adriamycin (ADR) plus or minus 20 μM NCO-700. The cell suspensions were washed after one hour of incubation and plated with soft agar. After 14 days of incubation at 37°, the percent of colonies surviving was scored. […] In particular, the survival of tumor cells decreased to approximately 1/2 to 1/3 after exposure to NCO-700 and adriamycin. […]

[3] = test system: ovarian cancer cell lines SW-626 and AN-3-CA; test: Cancer cell death assay (LDH release), ovarian lines; assay type: cell-based, human; conditions: compound alone, 24 hours
Experimental: FIG. 1 is a graph showing the relationship between LDH released and the concentration of NCO-700 in cancer cell death assays of human ovarian cancer cell lines SW-626 and AN-3-CA.
(§5) 1. Cancer Cell Death Assay
(§6) Cell death was measured quantitatively by the release of a marker intracellular enzyme, lactate dehydrogenase (LDH), from damaged or killed cells. LDH released into the extracellular fluid, was measured 24 hours after drug exposure to cancer cells and the enzyme activity was determined by the method of Decker et al. (J. Immunolog Methods 15:61-99, 1988).
(§7) All cell lines used in the present study were obtained from the American Type Tissue Culture Laboratory and cultured according to their specifications. All were human cancer lines unless otherwise noted. The following cell lines and their tissue of origin used in our studies were:
(§8) The first assays performed measured the anti-neoplastic activity of NCO-700, alone, in cell death assays of a wide variety of human cancer cells. The results of these experiments are shown in FIGS. 1-6, where a dose-response curve of NCO-700 versus % LDH release is plotted, with higher values of LDH released indicating greater anti-neoplastic activity (apoptosis).

[4] = test system: HL-60 (leukemia); test: Cancer cell death assay (LDH release), leukemia line; assay type: cell-based, human; conditions: compound alone, 24 hours
Experimental: FIG. 4 is a graph showing the relationship between LDH released and the concentration of NCO-700 in cancer cell death assays of human cancer cell lines MCF-7 (breast), HL-60 (leukemia), and HEP-129 (liver).
as §5, §6, §7, §8

[5] = test system: DU-145 (prostate); test: Cancer cell survival assay, DU-145; assay type: cell-based, human; conditions: DU-145, seven days, alone
Experimental: (§9) Cell survival was assayed in cultured tumor cells. From 500-1000 cells per well were plated in 24-welled culture dishes and exposed to drug for seven days. After drug exposure, a computerized cell imaging technique was utilized to ascertain the number of viable cells remaining in each culture. From the data, survival curves were plotted and a ED50 (drug concentration that permits 50% cell survival) were calculated.
(§10) The cancer cell survival assay is an important additional in vitro assay to assess the anti-neoplastic activity of compounds as the cells are given a prolonged exposure (seven days) to the drug. FIGS. 9-16 show the effect of increasing the dose of NCO-700 on the survival of a number of cancer cell lines. […] In the figures, the vertical axis is the object area, which is the number of surviving cancer cells calculated by a computer.

[6] = test system: kidney tumor cells; test: Human tumor biopsy assay, kidney tumor; assay type: cell-based; conditions: 20 μM NCO-700 and 0.5 mg/ml adriamycin, 1 hour
Experimental: as §1, §2, §3, §4

[7] = test system: WIDR (colon); test: Cancer cell survival assay, WIDR; assay type: cell-based, human; conditions: seven days, alone
Experimental: as §9, §10
FIGS. 26-31 show the effect of increasing the dose of TOP-008 against a number of cancer cell lines. […] For example, if the activity of NCO-700 and TOP-008 are compared against the human colon cancer cell line WIDR (FIG. 16 in Experiment 1 versus FIG. 31) it is seen that the effective dose of TOP-008 is much lower in this particular assay.

[8] = test system: ovarian tumor cells; test: Human tumor biopsy assay, ovarian tumor; assay type: cell-based; conditions: 20 μM NCO-700 and 0.4 mg/ml vinblastine, 1 hour
Experimental: as §1, §2, §3, §4

[9] = test system: T-47D (breast); test: Cancer cell survival assay, T-47D; assay type: cell-based, human; conditions: seven days, alone
Experimental: as §9, §10

CCOC(=O)[C@@H]1O[C@H]1C(=O)N[C@@H](CC(C)C)C(=O)N1CCN(Cc2ccc(OC)c(OC)c2OC)CC1 [NCO-700, Bis[ethyl (2R,3R)-3-[(S)-3-methyl-1-[4-(2,3,4-trimethoxyphenylmethyl)piperazin-1-ylcarbonyl]butylcarbamoyl]oxirane-2-carboxylate] Sulfate]
effect on tumor size ([1]; 10 mg/kg): no effect
effect on tumor size ([1]; 25 mg/kg): significant anti-neoplastic effect
effect on tumor size ([1]; 50 mg/kg): significant anti-neoplastic effect
activity in inhibiting survival / sensitizing human tumor cells [2]: significant activity in inhibiting the survival of certain human tumor cells; also recorded: excellent activity in sensitizing to anticancer drugs
response of all other tumors [2]: varying degrees of positive response
anti-neoplastic activity (LDH release) [3]: partly responsive
anti-neoplastic activity (LDH release) [4]: did not respond
anti-neoplastic activity (cell survival) [5]: significant anti-neoplastic activity
survival of tumor cells decreased to (fraction) [6]: approximately 1/4
anti-neoplastic activity (cell survival) [7]: significant anti-neoplastic activity
survival of tumor cells decreased to (fraction) [8]: approximately 1/3
anti-neoplastic activity (cell survival) [9]: significant anti-neoplastic activity
